Measurements: ChEMBL document CHEMBL1201862, “PubChem BioAssay data set” (2004)
The source made the active and inactive calls.

What was measured:
[1] = tested on: BJ; assay: cytotoxicity toward BJ-TERT fibroblasts, dose response, cell-based, RAS-independent, luminescence (AID 1933); type: functional; details: Homo sapiens
[2] = tested on: BJ; assay: cells; type: functional, cell-based; details: Homo sapiens
[3] = cytotoxicity toward DRD oncogenic fibroblasts, dose response, cell-based, non-viral oncogenic, luminescence (AID 1934); type: functional; details: Homo sapiens
[4] = tested on: BJ; assay: cytotoxicity toward BJ-TERT-LT-ST fibroblasts, dose response, cell-based, RAS-independent, luminescence (AID 1935); type: functional; details: Homo sapiens;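 also: BJ fibroblasts immortalized with TERT plus LT and ST oncogenes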
[5] = tested on: BJ; assay: cytotoxicity toward Ras-transformed BJeLR fibroblasts, dose response, cell-based, alamar blue fluorescence, cherrypicked samples (AID 2631); type: functional; details: Homo sapiens;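 also: confirmatory dose-response assay in RAS-dependent BJ fibroblasts engineered with TERT, LT and ST, with cytotoxicity read by fluorescence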
[6] = biological target: T1, Caspase-3 (Homo sapiens, UniProt P42574); type: functional
T1 sequence (P42574 whole entry): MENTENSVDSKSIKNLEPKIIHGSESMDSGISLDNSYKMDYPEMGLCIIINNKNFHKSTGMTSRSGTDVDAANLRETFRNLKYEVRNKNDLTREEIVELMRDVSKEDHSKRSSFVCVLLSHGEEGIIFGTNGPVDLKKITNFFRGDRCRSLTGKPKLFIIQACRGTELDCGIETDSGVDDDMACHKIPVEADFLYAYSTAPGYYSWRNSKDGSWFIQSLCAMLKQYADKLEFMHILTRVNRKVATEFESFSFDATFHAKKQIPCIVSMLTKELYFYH

[7] = biological target: T2, Sentrin-specific protease 6 (Homo sapiens, UniProt Q9GZR1); type: functional
T2 sequence (Q9GZR1 whole entry): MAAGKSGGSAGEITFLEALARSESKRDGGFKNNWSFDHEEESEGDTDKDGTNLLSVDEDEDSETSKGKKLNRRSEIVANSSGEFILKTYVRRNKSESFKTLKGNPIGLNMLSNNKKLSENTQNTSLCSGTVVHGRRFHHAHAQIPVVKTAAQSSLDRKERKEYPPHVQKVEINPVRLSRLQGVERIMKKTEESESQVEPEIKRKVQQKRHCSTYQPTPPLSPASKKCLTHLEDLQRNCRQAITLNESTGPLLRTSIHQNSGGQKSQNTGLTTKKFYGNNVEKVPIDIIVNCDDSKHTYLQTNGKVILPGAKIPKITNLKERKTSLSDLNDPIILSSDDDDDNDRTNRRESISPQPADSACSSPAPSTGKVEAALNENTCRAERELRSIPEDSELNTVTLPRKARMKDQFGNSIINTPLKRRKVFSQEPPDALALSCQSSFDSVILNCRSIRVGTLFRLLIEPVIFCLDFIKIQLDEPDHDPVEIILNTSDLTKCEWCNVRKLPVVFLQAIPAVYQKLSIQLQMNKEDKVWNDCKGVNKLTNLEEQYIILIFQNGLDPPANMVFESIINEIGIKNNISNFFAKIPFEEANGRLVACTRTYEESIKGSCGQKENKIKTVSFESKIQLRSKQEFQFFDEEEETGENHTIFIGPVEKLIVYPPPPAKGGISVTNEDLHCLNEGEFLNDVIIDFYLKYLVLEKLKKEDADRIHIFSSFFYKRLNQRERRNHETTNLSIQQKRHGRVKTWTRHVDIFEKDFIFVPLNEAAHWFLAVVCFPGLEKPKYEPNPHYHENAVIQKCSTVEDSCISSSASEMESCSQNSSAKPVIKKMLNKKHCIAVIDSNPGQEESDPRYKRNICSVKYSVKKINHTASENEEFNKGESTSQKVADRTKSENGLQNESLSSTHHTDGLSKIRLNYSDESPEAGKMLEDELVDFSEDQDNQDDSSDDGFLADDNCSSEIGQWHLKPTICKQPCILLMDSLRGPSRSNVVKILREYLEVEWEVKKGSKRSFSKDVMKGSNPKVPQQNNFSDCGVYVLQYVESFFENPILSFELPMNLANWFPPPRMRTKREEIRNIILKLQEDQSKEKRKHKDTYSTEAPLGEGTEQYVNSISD

[8] = biological target: T3, Sentrin-specific protease 7 (Homo sapiens, UniProt Q9BQF6); type: functional;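 also: Luminescence-based dose-response confirmation of ultra-high-throughput screening hits, measuring inhibition of SENP7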
T3 sequence (Q9BQF6 whole entry): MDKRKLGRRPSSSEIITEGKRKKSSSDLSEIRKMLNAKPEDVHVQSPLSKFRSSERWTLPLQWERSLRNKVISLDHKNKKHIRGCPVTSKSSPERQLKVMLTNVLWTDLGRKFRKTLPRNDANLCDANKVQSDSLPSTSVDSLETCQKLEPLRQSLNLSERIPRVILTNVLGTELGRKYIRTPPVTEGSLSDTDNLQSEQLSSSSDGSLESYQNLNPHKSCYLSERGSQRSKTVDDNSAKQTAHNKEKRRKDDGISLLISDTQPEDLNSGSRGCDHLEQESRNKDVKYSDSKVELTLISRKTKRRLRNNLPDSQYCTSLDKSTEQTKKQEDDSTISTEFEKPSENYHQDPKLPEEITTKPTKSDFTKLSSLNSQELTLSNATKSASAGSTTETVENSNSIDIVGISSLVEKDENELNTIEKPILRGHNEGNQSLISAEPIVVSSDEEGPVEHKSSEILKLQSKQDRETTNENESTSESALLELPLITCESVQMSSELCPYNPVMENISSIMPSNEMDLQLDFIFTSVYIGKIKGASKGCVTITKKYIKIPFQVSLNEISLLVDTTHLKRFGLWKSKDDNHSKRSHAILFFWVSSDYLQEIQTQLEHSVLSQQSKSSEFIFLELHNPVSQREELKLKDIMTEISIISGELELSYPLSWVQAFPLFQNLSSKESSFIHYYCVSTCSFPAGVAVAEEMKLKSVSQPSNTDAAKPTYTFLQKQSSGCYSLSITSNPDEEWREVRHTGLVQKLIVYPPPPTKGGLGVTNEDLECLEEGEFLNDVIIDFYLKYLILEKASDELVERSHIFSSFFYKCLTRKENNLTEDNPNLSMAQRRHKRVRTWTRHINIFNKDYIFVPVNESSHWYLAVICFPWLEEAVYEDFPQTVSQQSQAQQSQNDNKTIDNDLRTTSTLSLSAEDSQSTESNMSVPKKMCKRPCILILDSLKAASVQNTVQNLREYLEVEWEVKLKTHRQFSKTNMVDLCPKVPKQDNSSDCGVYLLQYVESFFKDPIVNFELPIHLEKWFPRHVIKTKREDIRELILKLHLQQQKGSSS

[9] = biological target: T4, Sentrin-specific protease 8 (Homo sapiens, UniProt Q96LD8); type: functional;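 also: luminescence read-out of SENP8 inhibition, dose-response confirmation following an ultra-high-throughput screen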
T4 sequence (Q96LD8 whole entry): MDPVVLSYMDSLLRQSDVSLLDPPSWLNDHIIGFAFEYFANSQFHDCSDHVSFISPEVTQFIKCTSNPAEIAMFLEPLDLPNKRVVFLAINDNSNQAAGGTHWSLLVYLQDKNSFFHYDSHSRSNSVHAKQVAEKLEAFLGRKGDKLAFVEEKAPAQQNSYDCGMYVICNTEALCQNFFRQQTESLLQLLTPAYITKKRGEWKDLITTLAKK

[10] = biological target: T5, Insulin-degrading enzyme (Homo sapiens, UniProt P14735); assay: activators of recombinant IDE enzyme, dose response, counter-screen for IDE activator project, biochemical, fluorescence polarization (AID 588681)
T5 sequence (P14735 whole entry): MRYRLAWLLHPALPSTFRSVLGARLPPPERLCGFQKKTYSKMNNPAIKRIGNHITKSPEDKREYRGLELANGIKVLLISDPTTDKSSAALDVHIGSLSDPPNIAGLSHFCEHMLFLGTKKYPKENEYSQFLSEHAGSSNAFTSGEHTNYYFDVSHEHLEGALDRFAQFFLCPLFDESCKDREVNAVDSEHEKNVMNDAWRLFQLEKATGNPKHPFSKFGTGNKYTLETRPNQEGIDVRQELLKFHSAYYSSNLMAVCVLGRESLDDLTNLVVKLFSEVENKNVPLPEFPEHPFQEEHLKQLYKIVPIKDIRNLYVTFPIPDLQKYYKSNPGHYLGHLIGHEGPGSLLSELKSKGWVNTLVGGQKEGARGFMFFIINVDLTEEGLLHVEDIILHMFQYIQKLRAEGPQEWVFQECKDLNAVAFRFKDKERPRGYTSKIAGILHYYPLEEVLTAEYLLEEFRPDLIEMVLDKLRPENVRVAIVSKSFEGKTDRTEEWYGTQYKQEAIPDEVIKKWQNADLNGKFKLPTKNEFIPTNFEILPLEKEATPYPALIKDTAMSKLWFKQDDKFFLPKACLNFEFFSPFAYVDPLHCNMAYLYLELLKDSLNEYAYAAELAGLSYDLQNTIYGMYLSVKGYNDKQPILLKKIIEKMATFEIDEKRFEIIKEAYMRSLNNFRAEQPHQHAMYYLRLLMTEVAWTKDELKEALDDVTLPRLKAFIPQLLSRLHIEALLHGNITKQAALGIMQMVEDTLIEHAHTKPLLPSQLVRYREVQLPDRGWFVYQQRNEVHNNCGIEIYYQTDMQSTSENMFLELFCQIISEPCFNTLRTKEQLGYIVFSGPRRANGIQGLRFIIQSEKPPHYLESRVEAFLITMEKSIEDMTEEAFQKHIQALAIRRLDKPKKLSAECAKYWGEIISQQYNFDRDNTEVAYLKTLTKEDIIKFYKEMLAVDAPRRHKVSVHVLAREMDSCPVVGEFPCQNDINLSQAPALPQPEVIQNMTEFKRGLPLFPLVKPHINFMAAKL

[11] = tested on: HEK293; assay: optical interference in Abeta FP readout, dose response, artefact control for IDE activator project, biochemical, fluorescence polarization (AID 588442); type: functional, cell-based; details: Homo sapiens
[12] = tested on: HEK293; assay: HEK cell cytotoxicity by LDH release, dose response, cytotoxicity control for IDE activator project, fluorescence, HEK cells (AID 588440); type: functional, cell-based; details: Homo sapiens;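 also: cytotoxicity by LDH release measuring loss of membrane integrity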
[13] = biological target: T5, Insulin-degrading enzyme; assay: activators of endogenous IDE in HEK cells, dose response, cell-based, fluorescence polarization (AID 588439); type: functional
[14] = biological target: T3, Sentrin-specific protease 7; assay: SENP7 protease inhibitors, SAR follow-up, biochemical, luminescence (AID 504497); type: functional
[15] = tested on: Streptococcus sp. 'group A'; assay: growth inhibition of control SK(-) GAS strain, dose response, counter-screen for streptokinase expression inhibitor project, luminescence, kanamycin, BacTiterGlo, confirmation (AID 1900); type: functional, organism-based
[16] = biological target: T4, Sentrin-specific protease 8; assay: SENP8 protease inhibitors, SAR follow-up, biochemical, luminescence (AID 504501); type: functional
[17] = inhibitors of firefly luciferase expression or activity, dose response, H4 neuroglioma cells, luminescence (AID 1990); type: functional, cell-based
[18] = biological target: Nonstructural protein 1 (Influenza A virus, UniProt Q194T2); type: functional, Influenza A virus (A/California/07/2009(H1N1))
[19] = Luminescence Cell-Based Dose Response HTS to Identify Inhibitors of 5'UTR Stem-Loop Driven Prion Protein mRNA Translation in H4 Neuroglioblastoma Cells. [Related pubchem assays: 1827 (Project Summary), 1813 (Primary HTS)]; type: functional
[20] = tested on: Streptococcus; assay: Group A Streptococcus viability loss, dose response, counter-screen for streptokinase expression inhibitor project, luminescence, BacTiterGlo (AID 1915); type: functional, organism-based;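 also: potency for reduction of bacterial viability or growth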
[21] = inhibitors of SNCA 5'UTR-driven reporter translation, confirmation, H4 neuroglioma cells, luminescence (AID 1988); type: functional, cell-based
[22] = tested on: HEK293; assay: inhibitors of LMP1-driven NF-kB reporter, dose response, cell-based, HEK293, luciferase, cherry-pick (AID 588343); type: functional; details: Homo sapiens
[23] = biological target: T1, Caspase-3; assay: SAR Analysis of small molecule inhibitors of Sentrin-specific proteases (SENPs) using a Caspase-3 Selectivity assay. [Related pubchem assays (depositor defined):AID2540, AID2599, AID434973, AID489001]; type: functional
[24] = biological target: T2, Sentrin-specific protease 6; assay: SAR Analysis of small molecule inhibitors of Sentrin-specific protease 6 (SENP6) using a Luminescent assay. [Related pubchem assays (depositor defined):AID2582, AID2599]; type: functional

Sequence of Nonstructural protein 1 (Q194T2 whole entry): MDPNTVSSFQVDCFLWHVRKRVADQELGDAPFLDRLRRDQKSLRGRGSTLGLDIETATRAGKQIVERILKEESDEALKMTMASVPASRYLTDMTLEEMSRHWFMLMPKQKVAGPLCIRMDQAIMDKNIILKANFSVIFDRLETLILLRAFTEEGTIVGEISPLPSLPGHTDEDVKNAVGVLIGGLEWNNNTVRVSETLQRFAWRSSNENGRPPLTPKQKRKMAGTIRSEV

With COc1ccc(-c2coc3cc4oc(=O)c5ccccc5c4cc23)cc1F the EC50 [1] was 0.669 µM (inconclusive), the EC50 [2] was 109 µM (inconclusive) and the EC50 [3] was 0.923 µM (active). For the same compound, the EC50 [4] was 0.66 µM (inconclusive) and the EC50 [5] was 0.618 µM (inconclusive).
With Cn1cc(/C=C/C(=O)c2ccccc2)c2ccccc21 the IC50 [6] was 17.7 µM (active), the IC50 [7] was 7.58 µM (active) and the IC50 [8] was 3.24 µM (active). For the same compound, the IC50 [9] was 64.9 µM (active).
For COCCN=C(S)N(C)C1(c2ccccc2Cl)CCCCC1=O (stereo not given), the EC50 [10] was > 54.7 µM (inactive), the EC50 [11] was > 55.9 µM (inactive) and the IC50 [12] was > 89.2 µM (inactive). The EC50 [13] was > 54.7 µM (inactive).
For Cc1ccnc(Nc2nc(-c3ccc(F)cc3)cs2)c1, the IC50 [6] was 44.4 µM (active), the IC50 [7] was 38.4 µM (active) and the IC50 [8] was 6.9 µM (active). For the same compound, the IC50 [9] was 9.93 µM (active).
With COc1c(C(=O)Nc2ccc3[nH]c(O)nc3c2)cc2ccccc2c1Br the EC50 [10] was > 54.7 µM (inactive), the EC50 [11] was > 54.7 µM (inactive) and the IC50 [12] was 34.5 µM (inactive). The EC50 [13] was > 54.7 µM (inactive).
With O=[N+]([O-])c1ccc(O)c(/C=N/Nc2ncnc3c2cnn3-c2ccccc2)c1 the IC50 [14] was 1.4 µM (active), the EC50 [15] was 1.02 µM (active) and the IC50 [16] was 1.49 µM (active). The EC50 [17] was 11.4 µM (active), the IC50 [6] was > 100 µM (inactive) and the IC50 [18] was > 100 µM (active). The IC50 [7] was 11.3 µM (active), the IC50 [8] was 1.94 µM (active) and the EC50 [19] was 23.6 µM (active). For the same compound, the EC50 [20] was 1.01 µM (active), the EC50 [21] was 5.1 µM (inconclusive) and the AC50 [22] was 18.5 µM (active). For the same compound, the IC50 [23] was 4.42 µM (active), the IC50 [9] was 2.44 µM (active) and the IC50 [24] was 1.54 µM (active).
For CCOc1cc(C(=S)N2CCCC2)ccc1OCc1ccccc1F, the IC50 [14] was > 99 µM (inactive), the IC50 [16] was > 99 µM (inactive) and the IC50 [23] was > 99 µM (inactive). The IC50 [24] was > 99 µM (inactive).
